Test: in vivo
Details: Sprague-Dawley, rat, po, 4 mg/kg

| SMILES | bioavailability [%] |
| --- | --- |
| CC(C)(C#N)[C@H]1OC2(CCN(C(=O)[C@@H]3CN(C4CCOCC4)C[C@H]3c3ccc(F)cc3F)CC2)c2cc(F)c(Cl)cc21 | 23 |
| CC(=O)NC(C)(C)[C@H]1OC2(CCN(C(=O)[C@@H]3CN(C4CCOCC4)C[C@H]3c3ccc(F)cc3F)CC2)c2cc(Cl)c(C)cc21 | 26 |

Source: ChEMBL document CHEMBL1208763, “Discovery of potent, selective, and orally bioavailable 3H-spiro[isobenzofuran-1,4'-piperidine] based melanocortin subtype-4 receptor agonists” (Bioorg Med Chem Lett, 2010)
